According to article PMC6422423, “Constitutively active BRS3 is a genuinely orphan GPCR in placental mammals” (PLoS Biology, 2019):

Columns and labels:
[1] = system: BRS3 receptors in placental mammals; assay: Intracellular calcium assay, placental pooled; type: cell-based, human, mouse, dog, and aardvark; conditions: 10 nM peptide, HEK293
Protocol: (§1) Intracellular calcium was measured using the non-wash calcium assay Fluo8 kit (ab112129, Abcam) according to the manufacturer’s instructions. Briefly, HEK293 cells were seeded in 24-well plates and were transfected with GRPR, NMBR, BRS3, or the empty vector plasmid pcDNA3.1-V5-His (300 ng) and incubated overnight at 37°C with 5% CO2. The next day, the cells were replated into a 96-well assay plate (black plate and clear bottom). After 12 h, growth media were aspirated, and calcium dye was added. […] The basal fluorescence intensity was recorded 15 times at 1 Hz for […]. The results were normalized to the average basal fluorescence intensity in ratio, and the peak response was used for the result calculation. Calcium fold was calculated using no stimulation data as standard value.

spotted gar BRS3 (sBRS3) = assay: Intracellular calcium assay (WT and mutants); type: cell-based, Lepisosteus oculatus; conditions: for Calcium fold: 10 nM peptide, HEK293, Fluo8, sBRS3; for Intracellular Ca2+, mutants (in words): sBRS3 Q127R, P205S, and R294H
Protocol: as §1

[2] = system: BRS3 receptors in placental mammals; assay: ERK1/2 phosphorylation, placental pooled; type: cell-based, human, mouse, dog, and aardvark; conditions: 1,000 nM peptide, 0/2/5 min, HEK293
Protocol: (§2) For ERK1/2 phosphorylation, HEK293 cells were seeded in 24-well plates and transfected with GRPR, NMBR, BRS3, mutants of different species’ BRS3, or an empty vector plasmid, pcDNA3.1-V5-His plasmid (300 ng). […] Each sample with an equal amount of protein was mixed with 6×SDS sample buffer, boiled for 5 min, and separated on 10% SDS-polyacrylamide gel electrophoresis (PAGE) before transferring the proteins onto a PVDF membrane. The membranes were then blocked at room temperature for 1 h with 5% milk powder in Tris-buffered saline-Tween (TBST), followed by subsequent incubation at 4°C overnight in TBST containing the different primary antibodies (1:1,000 dilution). After washing three times (10 min each time) with TBST, the membranes were incubated for 1 h in TBST containing the secondary antibodies (1:2,000 dilution), followed by washing three times (10 min each time) with TBST, prior to detection by chemiluminescence.

aardvark BRS3 (aBRS3) = assay: ERK1/2 phosphorylation (WT and mutants); type: cell-based, Orycteropus afer; conditions: aBRS3 R127Q, S205P, and H294R, all three
Protocol: as §2

[3] = biological target: placental mammalian BRS3 (hBRS3, mBRS3, and aBRS3); assay: Radioligand binding, placental mammals pooled; set-up: species or system human, mouse, aardvark; conditions: for Ki: BRS3s in placental mammals; for Direct binding (in words): hBRS3, mBRS3, aBRS3, transfected HEK293 cells
Protocol: (§3) HEK293 cells were seeded in a 10-cm tissue culture dish at a density of 10^6 cells per dish and grown overnight at 37°C in growth medium. The following morning, 5 μg of different species’ BRS3 plasmids were transfected. After 6 h, the medium was replaced with growth medium. Cells were maintained at 37°C in a 5% CO2 atmosphere and used 48 h later for binding assays. The positive control group included transfected GRPR and NMBR; the test group consisted of transfected BRS3 from different species. Then, [^125I]-Tyr^42-GRP and [^125I]-Tyr-NMB were used as the ligands to assess affinity to the various receptors. […] The cell concentration was adjusted to between 0.05 and 4 × 10^6 cells/ml for each receptor such that less than 20% of the total added radioactive ligand was bound during the incubation, and the results were compared to cells transfected with GRPR or NMBR adjusted in concentration to bind a similar amount of ligand. After the incubation, 100 μl aliquots were added to 1.5-ml microfuge tubes, which contained 100 μl of binding buffer to determine the total radioactivity. The bound tracer was separated from unbound tracer by pelleting the cells through the binding buffer by centrifugation at 10,000g in a Microfuge E (Beckman) for 3 min. The supernatant was aspirated, and the pelleted cells were rinsed twice with a washing buffer that contained 1% (w/v) BSA in PBS. The amount of radioactivity bound to the cells was measured in a Cobra II Gamma counter (Packard Instruments). Binding was expressed as the percentage of total radioactivity that was associated with the cell pellet. All binding values represented saturable binding; nonsaturable binding was <15% of the total binding in all experiments. Each point was measured in duplicate, and each experiment was replicated at least four times. […] All the experiment data were calculated using 1 pM ligand-treated as 100% control.

[4] = system: BRS3 receptors in nonplacental vertebrates; assay: Intracellular calcium assay, nonplacental pooled; type: cell-based, koala, platypus, chicken, turtle, frog, and spotted gar; conditions: 10 nM peptide, HEK293
Protocol: as §1

turtle BRS3 (tBRS3) = assay: Radioligand binding (competition); set-up: species or system Chrysemys picta; conditions: transfected HEK293 cells, 1 h 21°C, pH 7.4, mean ± SE, at least three experiments
Protocol: as §3

[5] = system: BRS3 receptors of placental mammals; assay: Luciferase reporter, GRP/NMB stimulated, placental pooled; type: cell-based, human, mouse, dog, and aardvark; conditions: CRE/NFAT-RE/SRF-RE/SRE reporters; 0/10/100/1,000 nM, 12 h, HEK293
Protocol: To detect constitutive activity of BRS3, HEK293 cells were seeded in 24-well plates and cotransfected with the CRE/NFAT-RE/SRF-RE/SRE luciferase reporter plasmids (50 ng), the BRS3 from different species, or BRS3 mutants with different doses (10 ng/50 ng/150 ng); after 24 h, cells were further incubated in serum-free media for another 12 h before luciferase assay. As for peptide supplementation treatment, HEK293 cells were cotransfected with the CRE/NFAT-RE/SRF-RE/SRE luciferase reporter plasmids (50 ng) and various genes (300 ng) of the bombesin receptor family. […] Luciferase activities were determined using luciferase assay kits (Beyotime, Shanghai, China) and normalized to β-galactosidase activity. All experiments were performed at least three times in triplicates. HEK293 cells transfected with pcDNA were used as a blank control in all luciferase experiments, and the fold was calculated compared to blank control.

mouse BRS3 (mBRS3) = assay: ERK1/2 phosphorylation (WT and mutants); type: cell-based; conditions: mBRS3 R127Q, S205P, and H294R, all three
Protocol: as §2

GRPR [6] = biological target: T1, GRPR (Homo sapiens, UniProt P30550); assay: Intracellular calcium assay; type: cell-based; conditions: 10 nM peptide, HEK293, Fluo8, GRPR
T1 construct: HA; expressed in transfected cells; host or cells: HEK293
T1 sequence (P30550 whole entry, species assumed): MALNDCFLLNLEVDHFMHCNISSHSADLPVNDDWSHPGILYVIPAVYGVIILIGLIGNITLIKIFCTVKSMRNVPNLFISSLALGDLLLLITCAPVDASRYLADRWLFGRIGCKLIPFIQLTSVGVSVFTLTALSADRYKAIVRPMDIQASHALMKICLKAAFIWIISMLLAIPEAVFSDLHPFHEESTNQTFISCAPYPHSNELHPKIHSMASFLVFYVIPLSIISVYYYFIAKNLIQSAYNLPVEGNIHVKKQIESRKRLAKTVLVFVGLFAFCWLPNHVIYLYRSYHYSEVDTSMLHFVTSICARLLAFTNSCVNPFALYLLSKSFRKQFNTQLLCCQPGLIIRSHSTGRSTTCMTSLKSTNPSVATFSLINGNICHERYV
Protocol: as §1

GRPR [7] = biological target: T1, GRPR; assay: Radioligand binding (competition); conditions: [125I]-Tyr42-GRP
Protocol: HEK293 cells were seeded in a 10-cm tissue culture dish at a density of 10^6 cells per dish and grown overnight at 37°C in growth medium. The following morning, 5 μg of different species’ BRS3 plasmids were transfected. After 6 h, the medium was replaced with growth medium. Cells were maintained at 37°C in a 5% CO2 atmosphere and used 48 h later for binding assays. The positive control group included transfected GRPR and NMBR; the test group consisted of transfected BRS3 from different species. Then, [^125I]-Tyr^42-GRP and [^125I]-Tyr-NMB were used as the ligands to assess affinity to the various receptors. […] After the incubation, 100 μl aliquots were added to 1.5-ml microfuge tubes, which contained 100 μl of binding buffer to determine the total radioactivity. […] The amount of radioactivity bound to the cells was measured in a Cobra II Gamma counter (Packard Instruments). Binding was expressed as the percentage of total radioactivity that was associated with the cell pellet. […] Each point was measured in duplicate, and each experiment was replicated at least four times. […] All the experiment data were calculated using 1 pM ligand-treated as 100% control.

chicken BRS3 (cBRS3) = assay: ERK1/2 phosphorylation (WT and mutants); type: cell-based, Gallus gallus; conditions: cBRS3 P205S; exception to the significant effects
Protocol: as §2

Substance | Intracellular Ca2+ (in words) [1] | Calcium fold (spotted gar BRS3 (sBRS3); replicate 1) [fold] | Calcium fold (spotted gar BRS3 (sBRS3); replicate 2) [fold] | Calcium fold (spotted gar BRS3 (sBRS3); replicate 3) [fold] | Intracellular Ca2+, mutants (in words) (spotted gar BRS3 (sBRS3)) | ERK phosphorylation (in words) [2] | ERK phosphorylation, mutants (in words) (aardvark BRS3 (aBRS3)) | Ki [3] [nM] | Direct binding (in words) [3] | Intracellular Ca2+ (in words) [4] | IC50 (turtle BRS3 (tBRS3); 50 pM [125I]-Tyr42-GRP) [nM] | IC50 (turtle BRS3 (tBRS3); 50 pM [125I]-Tyr-NMB) [nM] | Luciferase stimulation (in words) [5] | ERK phosphorylation, mutants (in words) (mouse BRS3 (mBRS3)) | Calcium fold (GRPR [6]; replicate 1) [fold] | Calcium fold (GRPR [6]; replicate 2) [fold] | Calcium fold (GRPR [6]; replicate 3) [fold] | Inhibition of GRPR–GRP binding (in words) (GRPR [7]) | ERK phosphorylation, mutant (in words) (chicken BRS3 (cBRS3))
GSHWAVGHLM-NH2 [GRP, gastrin-releasing peptide] | no stimulation was observed | 4.5257 | 4.9378 | 5.3682 | significant effects | could not be activated | lead to ERK phosphorylation signal | > 1000 | no binding was detected | remarkable increase of Ca^2+ ions in cells | 0.14 | 0.28 | stimulation of luciferase units cannot be detected | lead to ERK phosphorylation signal | 5.512 | 5.7711 | 5.9191 |  | 
neuromedin B [NMB] | no stimulation was observed |  |  |  | significant effects | could not be activated | lead to ERK phosphorylation signal | > 1000 | no binding | remarkable increase of Ca^2+ ions in cells | 1.14 | 2.82 | stimulation of luciferase units cannot be detected | lead to ERK phosphorylation signal |  |  |  | very low affinity | excepting P205S of cBRS3 for ERK phosphorylation activated by NMB
